Laboratory results from the NIST ThermoML archive (doi:10.1016/j.fluid.2009.07.002).

Assay: xn = mol fraction of the nth substance listed
Settings: 101 kPa, Liquid, Taylor dispersion method

SMILES	binary diffusion coefficient (303.2 K, x1 = 0) [m2/s]	binary diffusion coefficient (303.2 K, x1 = 0.2) [m2/s]	binary diffusion coefficient (303.2 K, x1 = 0.4) [m2/s]	binary diffusion coefficient (303.2 K, x1 = 0.6) [m2/s]	binary diffusion coefficient (303.2 K, x1 = 0.8) [m2/s]	binary diffusion coefficient (308.2 K, x1 = 0) [m2/s]	binary diffusion coefficient (308.2 K, x1 = 0.2) [m2/s]	binary diffusion coefficient (308.2 K, x1 = 0.4) [m2/s]	binary diffusion coefficient (308.2 K, x1 = 0.6) [m2/s]	binary diffusion coefficient (308.2 K, x1 = 0.8) [m2/s]	binary diffusion coefficient (313.2 K, x1 = 0) [m2/s]	binary diffusion coefficient (313.2 K, x1 = 0.2) [m2/s]	binary diffusion coefficient (313.2 K, x1 = 0.4) [m2/s]	binary diffusion coefficient (313.2 K, x1 = 0.6) [m2/s]	binary diffusion coefficient (313.2 K, x1 = 0.8) [m2/s]	binary diffusion coefficient (318.2 K, x1 = 0) [m2/s]	binary diffusion coefficient (318.2 K, x1 = 0.2) [m2/s]	binary diffusion coefficient (318.2 K, x1 = 0.4) [m2/s]	binary diffusion coefficient (318.2 K, x1 = 0.6) [m2/s]	binary diffusion coefficient (318.2 K, x1 = 0.8) [m2/s]	other results
OCCO [1,2-ethanediol] + O	1.24e-09	8.14e-10	5.28e-10	4.02e-10	3.34e-10	1.38e-09	8.89e-10	5.8e-10	4.51e-10	4.05e-10	1.51e-09	9.8e-10	6.31e-10	5.18e-10	4.68e-10	1.68e-09	1.09e-09	7.57e-10	6e-10	5.24e-10	binary diffusion coefficient (298.2 K, x1 = 0): 1.1e-09 m2/s; binary diffusion coefficient (298.2 K, x1 = 0.2): 6.95e-10 m2/s; binary diffusion coefficient (298.2 K, x1 = 0.4): 4.82e-10 m2/s; binary diffusion coefficient (298.2 K, x1 = 0.6): 3.81e-10 m2/s; binary diffusion coefficient (298.2 K, x1 = 0.8): 3.18e-10 m2/s; binary diffusion coefficient (323.2 K, x1 = 0): 1.86e-09 m2/s; binary diffusion coefficient (323.2 K, x1 = 0.2): 1.19e-09 m2/s; binary diffusion coefficient (323.2 K, x1 = 0.4): 8.48e-10 m2/s; binary diffusion coefficient (323.2 K, x1 = 0.6): 6.88e-10 m2/s; binary diffusion coefficient (323.2 K, x1 = 0.8): 6.03e-10 m2/s
OCCOCCO [diethylene glycol] + O	1.04e-09	4.69e-10	3.18e-10	2.82e-10	2.56e-10	1.13e-09	5.24e-10	3.75e-10	3.29e-10	3.06e-10	1.25e-09	6.02e-10	4.45e-10	3.93e-10	3.72e-10	1.41e-09	7.01e-10	5.16e-10	4.6e-10	4.3e-10	binary diffusion coefficient (323.2 K, x1 = 0): 1.53e-09 m2/s; binary diffusion coefficient (323.2 K, x1 = 0.2): 7.83e-10 m2/s; binary diffusion coefficient (323.2 K, x1 = 0.4): 5.71e-10 m2/s; binary diffusion coefficient (323.2 K, x1 = 0.6): 5.37e-10 m2/s; binary diffusion coefficient (323.2 K, x1 = 0.8): 5.03e-10 m2/s
OCCOCCOCCO [triethylene glycol] + O	8.15e-10	3.71e-10	2.78e-10	2.33e-10	2.01e-10	8.99e-10	4.3e-10	3.12e-10	2.7e-10	2.41e-10	9.94e-10	5.1e-10	3.7e-10	3.25e-10	2.98e-10	1.07e-09	5.48e-10	4.27e-10	3.79e-10	3.51e-10	binary diffusion coefficient (323.2 K, x1 = 0): 1.18e-09 m2/s; binary diffusion coefficient (323.2 K, x1 = 0.2): 6.3e-10 m2/s; binary diffusion coefficient (323.2 K, x1 = 0.4): 4.8e-10 m2/s; binary diffusion coefficient (323.2 K, x1 = 0.6): 4.44e-10 m2/s; binary diffusion coefficient (323.2 K, x1 = 0.8): 4.15e-10 m2/s
